Values of other authors as cited in paper PMC5854708, “Grass Carp Prolactin Gene: Structural Characterization and Signal Transduction for PACAP-induced Prolactin Promoter Activity” (Scientific Reports, 2018).
Read-outs that look alike come from different tables or passages of the source.

Legend:
PAC1 receptors = conditions: cited from earlier work
From the text: (§1) PACAP and vasoactive intestinal peptide (VIP) are members of the glucagon/secretin peptide family and have been reported to play roles in PRL regulation. […] In contrast to VIP, the biological actions of PACAP on ...

[1] = tested on: PRL promoter in GH3 cells; conditions: cAMP-dependent; cited from earlier work
From the text: as §1

[2] = tested on: PRL secretion / PRL gene expression; conditions: mammals, cited from earlier work
From the text: as §1

[3] = tested on: MAPK in SH-SY5Y neuroblastoma cells; conditions: human SH-SY5Y neuroblastoma cells; cited from earlier work
From the text: (§2) Given that PACAP has been reported to activate MAPK (e.g., in human SH-SY5Y neuroblastoma cells)[24], and PI3K-dependent cascades (e.g., in human neutrophils)[25], the functional role of MAPK and PI3K in PACAP-induced grass carp promoter activity were also examined. […] However, parallel treatment with the PI3K inhibi ...

[4] = tested on: PI3K-dependent cascades in neutrophils; conditions: human neutrophils; cited from earlier work
From the text: as §2

[5] = tested on: cAMP production in αT3-1 cells; conditions: via PAC1 receptors; cited from earlier work

pituitary adenylate cyclase-activating peptide [PACAP]
affinity/specificity at PAC1 receptors (PAC1 receptors): specific for PACAP
effect on PRL promoter activity [1]: up-regulate PRL promoter activity
effect on PRL secretion ([2]; ref 9, 13): stimulatory
effect on PRL secretion ([2]; ref 14): inhibitory
effect on PRL secretion ([2]; ref 15, 16): no effect
MAPK activation [3]: activate MAPK
activation of PI3K-dependent cascades [4]: activate
cAMP production [5]: induced
